The values below come from patent US10450263B2, “Benzo annulenes as antiviral agents” (Southern Research Institute, priority 2017, dated 2019).

Molecules are shown by their SMILES.

Data set [1] in a line: CC50 reported alongside the CHIKV antiviral assay (cytotoxicity). The data set is classed as cell-based. As to conditions: cell line not given. From the text: (§1) The compounds below in Table 1 were synthesized with methods identical or analogous to those described herein. The requisite starting materials were commercially available, described in the literature, or readily synthesized by one skilled in the art of organic synthesis.

The next data set has as its system Chikungunya virus. The data set can be described thus: Evaluation of antiviral activity against Chikungunya virus (EC90). The data set is classed as cell-based. As to conditions: Chikungunya virus, read-out: EC90 (μM) CHIKV, concentration required for 90% inhibition of CHIKV.
Description: EC90 refers to the concentration of the compound that is required for 90% antagonism or inhibition of CHIKV. EC90 also refers to the concentration of a substance that is required for 90% antagonism or inhibition of CHIKV in vivo.
as §1

The term CC50 denotes the concentration that lowers cell viability or growth by half. `CC(C)(C)c1ccc(C(=O)Nc2cc3c(cc2C(F)(F)F)CCCCC3)cc1` [Compound 14, 4-(tert-butyl)-N-(3-(trifluoromethyl)-6,7,8,9-tetrahydro-5H-benzo[7]annulen-2-yl)benzamide]: the CC50 in data set [1] was greater than 30 µM. In addition, the EC90 in the data set on Chikungunya virus is greater than 30 µM. As for `CC(C)(C)c1ccc(C(=O)Nc2cc3c(cc2C#N)CCCCC3)cc1` [Compound 12, 4-(tert-Butyl)-N-(3-cyano-6,7,8,9-tetrahydro-5H-benzo[7]annulen-2-yl)benzamide], the CC50 in data set [1] was 17 µM. Moreover, in the data set with Chikungunya virus, the EC90 worked out at 4.4 µM. For `CC(C)(C)n1nc(C(=O)Nc2ccc3c(c2)CCCCC3)cc1C(F)(F)F` [Compound 27, 1-(tert-butyl)-N-(6,7,8,9-tetrahydro-5H-benzo[7]annulen-2-yl)-5-(trifluoromethyl)-1H-pyrazole-3-carboxamide] the same measures were greater than 30 µM and greater than 10 µM. For `CC(C)(C)c1ccc(C(=O)Nc2cc3c(cc2N)CCCCC3)cc1` [Compound 20, N-(3-amino-6,7,8,9-tetrahydro-5H-benzo[7]annulen-2-yl)-4-(tert-butyl)benzamide], in that order: greater than 30 µM and greater than 30 µM.

`COc1cc2c(cc1NC(=O)c1ccc(C(F)(F)F)cc1)CCCCC2` [Compound 74, N-(3-methoxy-6,7,8,9-tetrahydro-5H-benzo[7]annulen-2-yl)-4-(trifluoromethyl)benzamide] returned a CC50 in data set [1] greater than 30 µM. In addition, the EC90 with Chikungunya virus was 7.4 µM. For `COc1cc2c(cc1NC(=O)c1ccc(C3(C(F)(F)F)CC3)cc1)CCCCC2` [Compound 51, N-(3-methoxy-6,7,8,9-tetrahydro-5H-benzo[7]annulen-2-yl)-4-(1-(trifluoromethyl)cyclopropyl)benzamide], in that order: greater than 30 µM and 1.3 µM. For `COc1cc2c(cc1NC(=O)c1cnc(C(C)(C)C)nc1)CCCCC2` [Compound 49, 2-(tert-Butyl)-N-(3-methoxy-6,7,8,9-tetrahydro-5H-benzo[7]annulen-2-yl)pyrimidine-5-carboxamide] the same measures were 37.6 µM and 2.99 µM. For `COc1cc2c(cc1NC(=O)CCc1ccc(C(C)(C)C)cc1)CCCCC2` [Compound 68, 3-(4-(tert-Butyl)phenyl)-N-(3-methoxy-6,7,8,9-tetrahydro-5H-benzo[7]annulen-2-yl)propanamide] the same measures were greater than 30 µM and greater than 10 µM. In data set [1], `COc1cc2c(cc1N(C)C(=O)c1ccc(C(C)(C)C)cc1)CCCCC2` [Compound 30] yielded a cytotoxic concentration (CC50) greater than 30 µM. The EC90 in the data set on Chikungunya virus was found to be 14.5 µM. In turn, `COc1cc2c(cc1NC(=O)c1cn(C)cn1)CCCCC2` [Compound 32, N-(3-methoxy-6,7,8,9-tetrahydro-5H-benzo[7]annulen-2-yl)-1-methyl-1H-imidazole-4-carboxamide] had a CC50 in data set [1] greater than 30 µM. In addition, the EC90 in the data set with Chikungunya virus turned out to be 55.6 µM. For `CCCc1ccc(C(=O)Nc2cc3c(cc2OC)CCCCC3)cc1` [Compound 57, N-(3-methoxy-6,7,8,9-tetrahydro-5H-benzo[7]annulen-2-yl)-4-propylbenzamide] the same measures were greater than 30 µM and greater than 10 µM.

In turn, `CC(C)(C)c1ccc(C(=O)Nc2cc3c(cc2[N+](=O)[O-])CCCCC3)cc1` [Compound 22, 4-(tert-butyl)-N-(3-nitro-6,7,8,9-tetrahydro-5H-benzo[7]annulen-2-yl)benzamide] showed a CC50 in data set [1] greater than 30 µM. Also, the EC90 with Chikungunya virus is greater than 30 µM. In data set [1], `COc1cc2c(cc1NC(=O)c1ccc(F)cc1)CCCCC2` [Compound 78, 4-Fluoro-N-(3-methoxy-6,7,8,9-tetrahydro-5H-benzo[7]annulen-2-yl)benzamide] returned a CC50 greater than 30 µM. The EC90 with Chikungunya virus is greater than 10 µM.

`COc1cc2c(cc1NC(=O)c1ccc(N(C)C)cc1)CCCCC2` [Compound 76, 4-(Dimethylamino)-N-(3-methoxy-6,7,8,9-tetrahydro-5H-benzo[7]annulen-2-yl)benzamide] returned a CC50 in data set [1] greater than 30 µM. In addition, in the data set on Chikungunya virus, the EC90 was greater than 10 µM.

In data set [1], `COc1cc2c(cc1NC(=O)C13C[C@H]4C[C@@H](C1)C[C@@H](C3)C4)CCCCC2` [Compound 42, (3r,5r,7r)-N-(3-methoxy-6,7,8,9-tetrahydro-5H-benzo[7]annulen-2-yl)adamantane-1-carboxamide] displayed a half-maximal cytotoxic concentration (CC50) greater than 30 µM. In addition, the EC90 in the data set with Chikungunya virus came to 12.1 µM. For `CC(C)(C)c1ccc(C(=O)Nc2ccc3c(c2OC(F)(F)F)CCCCC3)cc1` [Compound 87, 4-(tert-butyl)-N-(1-(trifluoromethoxy)-6,7,8,9-tetrahydro-5H-benzo[7]annulen-2-yl)benzamide] the same measures were greater than 30 µM and 19.5 µM. For `COc1cc2c(cc1NC(=O)c1ccc(C(O)(C(F)(F)F)C(F)(F)F)cc1)CCCCC2` [Compound 48, 4-(1,1,1,3,3,3-Hexafluoro-2-hydroxypropan-2-yl)-N-(3-methoxy-6,7,8,9-tetrahydro-5H-benzo[7]annulen-2-yl)benzamide] the same measures were 28.9 µM and 2.8 µM. On to `COc1cc2c(cc1NC(=O)c1ccc(Cl)cc1)CCCCC2` [Compound 71, 4-Chloro-N-(3-methoxy-6,7,8,9-tetrahydro-5H-benzo[7]annulen-2-yl)benzamide], for which, in data set [1], the CC50 is greater than 30 µM. Moreover, the EC90 in the data set with Chikungunya virus was found to be 6.4 µM. For `COc1cc2c(cc1NC(=O)c1oc3ccccc3c1C)CCCCC2` [Compound 79, N-(3-methoxy-6,7,8,9-tetrahydro-5H-benzo[7]annulen-2-yl)-3-methylbenzofuran-2-carboxamide] the same measures were greater than 30 µM and greater than 10 µM. For `CCCOc1cc2c(cc1NC(=O)c1ccc(C(C)(C)C)cc1)CCCCC2` [Compound 86, 4-(tert-Butyl)-N-(3-propoxy-6,7,8,9-tetrahydro-5H-benzo[7]annulen-2-yl)benzamide] the same measures were greater than 30 µM and 7 µM. For `CCn1nc(C(=O)Nc2ccc3c(c2)CCCCC3)cc1C` [Compound 26, 1-ethyl-5-methyl-N-(6,7,8,9-tetrahydro-5H-benzo[7]annulen-2-yl)-1H-pyrazole-3-carboxamide] the same measures were greater than 30 µM and greater than 30 µM.

In data set [1], `COc1cc2c(cc1NC(=O)c1ccccc1)CCCCC2` [Compound 83, N-(3-methoxy-6,7,8,9-tetrahydro-5H-benzo[7]annulen-2-yl)benzamide] displayed a CC50 greater than 30 µM. Besides, the EC90 in the data set on Chikungunya virus was greater than 10 µM. For `COc1cc2c(cc1NC(=O)c1ccc(Cl)cc1I)CCCCC2` [Compound 75, 4-Chloro-2-iodo-N-(3-methoxy-6,7,8,9-tetrahydro-5H-benzo[7]annulen-2-yl)benzamide] the same measures were greater than 30 µM and 6.1 µM. For `CC(C)(C)c1ccc(C(=O)Nc2cc3c(cc2OCc2ccc(C(F)(F)F)cc2)CCCCC3)cc1` [Compound 17, 4-(tert-Butyl)-N-(3-((4-(trifluoromethyl)benzyl)oxy)-6,7,8,9-tetrahydro-5H-benzo[7]annulen-2-yl)benzamide] the same measures were greater than 30 µM and greater than 30 µM. For `COc1cc2c(cc1NC(=O)C1CCOCC1)CCCCC2` [Compound 82, N-(3-methoxy-6,7,8,9-tetrahydro-5H-benzo[7]annulen-2-yl)tetrahydro-2H-pyran-4-carboxamide], in that order: greater than 30 µM and greater than 10 µM. In data set [1], `COc1cc2c(cc1NC(=O)c1ccc(C(C)(C)O)cc1)CCCCC2` [Compound 46, 4-(2-Hydroxypropan-2-yl)-N-(3-methoxy-6,7,8,9-Tetrahydro-5H-benzo[7]annulen-2-yl)benzamide] returned a CC50 of 79.2 µM. Besides, in the data set with Chikungunya virus, the EC90 is 2.45 µM. For `COc1cc2c(cc1NC(=O)Cc1cccs1)CCCCC2` [Compound 73, N-(3-Methoxy-6,7,8,9-tetrahydro-5H-benzo[7]annulen-2-yl)-2-(thiophen-2-yl)acetamide], in that order: greater than 30 µM and 18.7 µM. Molecule `CC(C)(C)c1ccc(C(=O)Nc2cc3c(cc2OC(F)(F)F)CCCCC3)cc1` [Compound 13, 4-(tert-butyl)-N-(3-(trifluoromethoxy)-6,7,8,9-tetrahydro-5H-benzo[7]annulen-2-yl)benzamide] had a CC50 in data set [1] greater than 25 µM. Also, the EC90 in the data set on Chikungunya virus was found to be 13.7 µM. In the case of `COc1cc2c(cc1NC(=O)c1cnc(C)s1)CCCCC2` [Compound 33, N-(3-methoxy-6,7,8,9-tetrahydro-5H-benzo[7]annulen-2-yl)-2-methylthiazole-5-carboxamide], the CC50 in data set [1] was greater than 30 µM. For the same molecule, in the data set with Chikungunya virus, the EC90 is greater than 30 µM.

Consider `CCc1ccc(C(=O)Nc2cc3c(cc2OC)CCCCC3)cc1` [Compound 56, 4-Ethyl-N-(3-methoxy-6,7,8,9-tetrahydro-5H-benzo[7]annulen-2-yl)benzamide], for which, in data set [1], the CC50 was greater than 30 µM. In addition, in the data set with Chikungunya virus, the EC90 is greater than 10 µM. For `CN(C(=O)c1ccc(C(C)(C)C)cc1)c1ccc2c(c1)CCCCC2` [Compound 28, 4-(tert-butyl)-N-methyl-N-(6,7,8,9-tetrahydro-5H-benzo[7]annulen-2-yl)benzamide] the same measures were greater than 30 µM and greater than 10 µM. For `COc1cc2c(cc1NC(=O)c1ccc(C3CC3)cc1)CCCCC2` [Compound 80, 4-Cyclopropyl-N-(3-methoxy-6,7,8,9-tetrahydro-5H-benzo[7]annulen-2-yl)benzamide], in that order: greater than 30 µM and 12.3 µM.

As to `COc1cc2c(cc1NC(=O)c1ccc(C(=O)O)cc1)CCCCC2` [Compound 55], the CC50 in data set [1] is greater than 30 µM. The EC90 with Chikungunya virus was greater than 10 µM. For `CC(C)(C)c1ccc(C(=O)Nc2cc3c(cc2CO)CCCCC3)cc1` [Compound 29] the same measures were greater than 30 µM and greater than 10 µM.

`COc1cc2c(cc1NC(=O)c1ccc(C(C)(C)C)cc1)CCCCC2` [Compound 3, 4-(tert-Butyl)-N-(3-methoxy-6,7,8,9-tetrahydro-5H-benzo[7]annulen-2-yl)benzamide]: in data set [1], the CC50 is greater than 30 µM.
